Source: ChEMBL document CHEMBL1201862, “PubChem BioAssay data set” (2004)
Calls of active or inactive are those of the source.

Tests used:
Cytochrome P450 2C9 = Cytochrome P450 2C9 (Homo sapiens, UniProt P11712); conditions: Potency
[1] = target: T1, Alkaline phosphatase, tissue-nonspecific isozyme (Homo sapiens, UniProt P05186)
T1 sequence (P05186 whole entry): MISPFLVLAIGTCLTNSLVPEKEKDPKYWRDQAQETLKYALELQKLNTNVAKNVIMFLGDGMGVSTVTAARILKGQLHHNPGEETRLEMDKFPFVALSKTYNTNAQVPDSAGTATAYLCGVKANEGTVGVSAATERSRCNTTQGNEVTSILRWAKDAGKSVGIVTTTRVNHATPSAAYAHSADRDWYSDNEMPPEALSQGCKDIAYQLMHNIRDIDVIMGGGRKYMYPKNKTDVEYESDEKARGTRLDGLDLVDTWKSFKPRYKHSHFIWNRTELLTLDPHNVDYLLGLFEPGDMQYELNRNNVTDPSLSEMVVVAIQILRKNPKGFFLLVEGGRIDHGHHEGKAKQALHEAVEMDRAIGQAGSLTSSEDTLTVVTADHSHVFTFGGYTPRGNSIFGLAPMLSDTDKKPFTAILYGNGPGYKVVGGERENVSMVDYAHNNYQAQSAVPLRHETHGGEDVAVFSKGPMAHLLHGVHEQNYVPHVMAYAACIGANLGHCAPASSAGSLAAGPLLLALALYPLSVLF

[2] = HPDE-C7 pancreatic duct cell viability loss – fluorescence, HTS (AID 430); type: functional, cell-based; conditions: Homo sapiens
[3] = viability loss of HPDE-C7K cells – cell-based, fluorescence, HTS, primary screen (AID 431); type: functional; conditions: Homo sapiens
[4] = Luminescence Cell-Based Dose Retest to Confirm Inhibitors of Cancer Stem Cells. [Related pubchem assays (depositor defined):AID2717, AID2721]; type: functional; conditions: Homo sapiens
[5] = target: T2, Methionyl-tRNA synthetase, putative (Trypanosoma brucei brucei, UniProt Q38C91); type: functional, Trypanosoma brucei brucei strain 927/4 GUTat10.1
T2 sequence (Q38C91 whole entry): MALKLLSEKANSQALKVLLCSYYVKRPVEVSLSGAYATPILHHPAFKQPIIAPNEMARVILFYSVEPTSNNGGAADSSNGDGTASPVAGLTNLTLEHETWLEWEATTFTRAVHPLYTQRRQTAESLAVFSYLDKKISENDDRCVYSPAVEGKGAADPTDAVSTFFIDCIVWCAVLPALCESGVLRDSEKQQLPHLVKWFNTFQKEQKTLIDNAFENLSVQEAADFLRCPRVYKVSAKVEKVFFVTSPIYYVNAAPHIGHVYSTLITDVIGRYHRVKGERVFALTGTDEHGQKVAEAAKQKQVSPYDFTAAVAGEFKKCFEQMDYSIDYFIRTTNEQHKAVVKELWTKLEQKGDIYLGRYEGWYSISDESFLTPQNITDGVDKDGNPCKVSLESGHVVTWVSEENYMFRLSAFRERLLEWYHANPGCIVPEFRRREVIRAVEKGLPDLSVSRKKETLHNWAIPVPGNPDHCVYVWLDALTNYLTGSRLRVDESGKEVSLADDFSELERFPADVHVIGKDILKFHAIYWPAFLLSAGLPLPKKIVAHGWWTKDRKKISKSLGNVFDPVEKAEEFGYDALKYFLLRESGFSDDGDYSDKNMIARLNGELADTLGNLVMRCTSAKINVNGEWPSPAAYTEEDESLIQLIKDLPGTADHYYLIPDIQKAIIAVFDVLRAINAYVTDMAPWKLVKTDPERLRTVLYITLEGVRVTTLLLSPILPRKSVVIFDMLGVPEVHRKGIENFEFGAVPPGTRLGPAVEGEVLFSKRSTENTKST

[6] = Counterscreen for inhibitors of Trypanosoma brucei methionyl tRNA synthetase (MetRS): Luminescence-based cell-based high throughput dose response assay to identify compounds that are cytotoxic to Jurkat human T lymphocyte cells.; type: functional; conditions: jurkat
[7] = target: T2, Methionyl-tRNA synthetase, putative; type: functional, Trypanosoma brucei brucei strain 927/4 GUTat10.1; remark: listed apart in the source
BJ [8] = test: BJ-TERT fibroblast viability loss – cell-based, RAS-independent, luminescence, dose response (AID 1933); type: functional; conditions: Homo sapiens
[9] = target: T3, Eukaryotic translation initiation factor 2-alpha kinase 3 (Homo sapiens, UniProt Q9NZJ5); test: Dose response cell-based high-throughput screening assay to measure PERK inhibition. [Related pubchem assays: 1416 ]; type: functional
T3 sequence (Q9NZJ5 whole entry): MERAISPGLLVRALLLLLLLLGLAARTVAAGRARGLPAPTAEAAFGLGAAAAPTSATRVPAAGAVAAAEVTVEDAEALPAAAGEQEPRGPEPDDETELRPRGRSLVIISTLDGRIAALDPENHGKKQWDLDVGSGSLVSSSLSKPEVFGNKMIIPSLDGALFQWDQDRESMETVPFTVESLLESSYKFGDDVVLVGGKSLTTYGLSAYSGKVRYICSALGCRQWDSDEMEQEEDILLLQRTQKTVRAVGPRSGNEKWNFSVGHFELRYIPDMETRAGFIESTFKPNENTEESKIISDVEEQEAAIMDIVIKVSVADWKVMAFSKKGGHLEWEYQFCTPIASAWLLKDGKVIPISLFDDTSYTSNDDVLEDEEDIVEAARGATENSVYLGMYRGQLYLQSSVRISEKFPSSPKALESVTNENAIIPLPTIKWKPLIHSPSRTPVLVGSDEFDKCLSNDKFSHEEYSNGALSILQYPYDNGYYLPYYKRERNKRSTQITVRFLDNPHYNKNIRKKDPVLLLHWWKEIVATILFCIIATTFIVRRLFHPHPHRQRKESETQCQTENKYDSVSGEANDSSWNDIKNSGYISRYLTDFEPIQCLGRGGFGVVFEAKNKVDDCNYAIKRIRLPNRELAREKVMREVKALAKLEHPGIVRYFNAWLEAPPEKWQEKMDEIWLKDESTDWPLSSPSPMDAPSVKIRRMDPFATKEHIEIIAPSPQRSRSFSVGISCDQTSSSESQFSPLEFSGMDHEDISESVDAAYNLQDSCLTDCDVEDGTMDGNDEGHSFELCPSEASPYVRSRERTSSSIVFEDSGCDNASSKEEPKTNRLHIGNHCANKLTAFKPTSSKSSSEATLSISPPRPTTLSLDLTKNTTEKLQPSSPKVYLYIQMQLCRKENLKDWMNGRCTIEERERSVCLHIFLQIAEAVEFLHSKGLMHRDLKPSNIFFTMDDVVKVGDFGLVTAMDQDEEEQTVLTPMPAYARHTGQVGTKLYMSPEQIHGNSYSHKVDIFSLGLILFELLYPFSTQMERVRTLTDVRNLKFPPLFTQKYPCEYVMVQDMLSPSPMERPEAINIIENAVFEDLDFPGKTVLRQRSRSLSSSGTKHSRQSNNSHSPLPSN

BJ [10] = test: cells; type: functional, cell-based; conditions: Homo sapiens
[11] = target: T3, Eukaryotic translation initiation factor 2-alpha kinase 3; test: Counterscreen assay for PERK inhibitors: Dose response cell-based high throughput screening assay to measure inhibition of PERK at 6 hours. [Related pubchem assays: 1522, 1416 ]; type: functional
BJ [12] = test: BJ-TERT-LT-ST fibroblast viability loss – cell-based, RAS-independent, luminescence, dose response (AID 1935); type: functional; conditions: Homo sapiens;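 further: BJ fibroblasts immortalized with TERT plus LT and ST oncogenes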
[13] = DRD fibroblast viability loss – cell-based, non-viral oncogenic, luminescence, dose response (AID 1934); type: functional; conditions: Homo sapiens
[14] = target: Cyclin-dependent kinase 5/CDK5 activator 1 (Homo sapiens, UniProt Q00535); test: blockade of human CDK5 activity – biochemical, cherry-picked samples, set 2, dose response (AID 504545)
Chain of Cyclin-dependent kinase 5/CDK5 activator 1 (Q00535 whole entry): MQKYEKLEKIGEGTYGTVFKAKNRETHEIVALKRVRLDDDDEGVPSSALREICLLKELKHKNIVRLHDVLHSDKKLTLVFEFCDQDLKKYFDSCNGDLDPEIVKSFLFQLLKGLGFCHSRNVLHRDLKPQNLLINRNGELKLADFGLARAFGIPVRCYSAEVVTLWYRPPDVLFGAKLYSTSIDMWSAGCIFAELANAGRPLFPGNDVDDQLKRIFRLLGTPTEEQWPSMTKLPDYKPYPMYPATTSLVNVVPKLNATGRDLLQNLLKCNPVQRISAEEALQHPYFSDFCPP
Chain of Cyclin-dependent kinase 5/CDK5 activator 1 (Q15078 whole entry, further chain): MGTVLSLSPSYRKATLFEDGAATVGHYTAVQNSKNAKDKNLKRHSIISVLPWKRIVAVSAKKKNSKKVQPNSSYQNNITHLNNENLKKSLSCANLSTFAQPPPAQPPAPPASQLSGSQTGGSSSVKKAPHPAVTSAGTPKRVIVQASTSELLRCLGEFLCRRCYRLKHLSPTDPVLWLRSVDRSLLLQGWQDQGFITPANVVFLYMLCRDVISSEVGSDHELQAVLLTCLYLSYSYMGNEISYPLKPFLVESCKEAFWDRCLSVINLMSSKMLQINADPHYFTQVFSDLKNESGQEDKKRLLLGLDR

Galanin receptor type 3 = target: T4, Galanin receptor type 3 (Homo sapiens, UniProt O60755); test: Fluorescence-based cell-based primary high throughput dose response assay to identify antagonists of the Galanin Receptor 3 (GalR3).; type: functional
T4 sequence (O60755 whole entry): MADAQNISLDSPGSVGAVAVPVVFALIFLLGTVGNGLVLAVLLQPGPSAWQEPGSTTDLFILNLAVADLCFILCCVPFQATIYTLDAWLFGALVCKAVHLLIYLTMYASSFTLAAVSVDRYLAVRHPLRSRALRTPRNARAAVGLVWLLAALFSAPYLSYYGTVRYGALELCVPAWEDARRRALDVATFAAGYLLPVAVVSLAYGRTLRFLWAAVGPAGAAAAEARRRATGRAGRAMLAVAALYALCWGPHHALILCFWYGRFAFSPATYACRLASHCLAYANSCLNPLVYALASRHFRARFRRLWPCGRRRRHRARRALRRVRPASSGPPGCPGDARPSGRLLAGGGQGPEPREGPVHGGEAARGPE

cells = type: functional, cell-based; conditions: HEK-CNG
[15] = target: Neuropeptides B/W receptor type 1 (Homo sapiens, UniProt P48145); test: Fluorescence-based dose response cell-based high throughput screening assay to identify antagonists of the G-protein coupled receptor 7 (GPR7). [Related pubchem assays: 1952 (Screening assay (GPR7 antagonists).), 1880 (Summary AID.)]; type: functional
Chain of Neuropeptides B/W receptor type 1 (P48145 whole entry): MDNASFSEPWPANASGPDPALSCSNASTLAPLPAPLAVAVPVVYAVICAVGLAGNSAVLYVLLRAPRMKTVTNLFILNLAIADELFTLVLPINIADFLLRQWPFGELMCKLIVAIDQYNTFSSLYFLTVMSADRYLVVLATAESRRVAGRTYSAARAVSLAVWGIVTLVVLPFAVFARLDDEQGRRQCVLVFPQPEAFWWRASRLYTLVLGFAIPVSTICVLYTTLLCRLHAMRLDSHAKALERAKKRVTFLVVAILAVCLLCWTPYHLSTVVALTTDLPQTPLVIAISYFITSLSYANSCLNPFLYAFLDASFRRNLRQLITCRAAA

[16] = target: T5, Neuropeptide Y receptor type 2 (Homo sapiens, UniProt P49146); test: IC50 for human NPY-Y2 blockade – cell-based, counter-screen for NPY-Y1 antagonist project, dose response (AID 1278); type: functional
T5 sequence (P49146 whole entry): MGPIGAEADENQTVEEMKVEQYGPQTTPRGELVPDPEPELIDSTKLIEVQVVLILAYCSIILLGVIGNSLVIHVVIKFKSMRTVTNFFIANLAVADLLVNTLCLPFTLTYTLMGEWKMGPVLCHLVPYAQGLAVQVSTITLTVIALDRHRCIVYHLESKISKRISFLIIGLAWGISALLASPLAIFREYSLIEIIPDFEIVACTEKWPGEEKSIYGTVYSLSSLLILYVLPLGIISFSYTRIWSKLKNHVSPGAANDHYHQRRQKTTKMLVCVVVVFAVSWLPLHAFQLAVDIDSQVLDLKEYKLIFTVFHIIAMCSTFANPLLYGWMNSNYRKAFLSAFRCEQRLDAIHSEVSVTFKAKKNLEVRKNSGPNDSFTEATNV

[17] = target: Melanin-concentrating hormone receptor 1 (Homo sapiens, UniProt Q99705); test: Fluorescence-based counterscreen for antagonists of the G-protein coupled receptor 7 (GPR7): cell-based high throughput dose response assay to identify antagonists of the melanin-concentrating hormone receptor 1 (MCHR1).; type: functional
Chain of Melanin-concentrating hormone receptor 1 (Q99705 whole entry): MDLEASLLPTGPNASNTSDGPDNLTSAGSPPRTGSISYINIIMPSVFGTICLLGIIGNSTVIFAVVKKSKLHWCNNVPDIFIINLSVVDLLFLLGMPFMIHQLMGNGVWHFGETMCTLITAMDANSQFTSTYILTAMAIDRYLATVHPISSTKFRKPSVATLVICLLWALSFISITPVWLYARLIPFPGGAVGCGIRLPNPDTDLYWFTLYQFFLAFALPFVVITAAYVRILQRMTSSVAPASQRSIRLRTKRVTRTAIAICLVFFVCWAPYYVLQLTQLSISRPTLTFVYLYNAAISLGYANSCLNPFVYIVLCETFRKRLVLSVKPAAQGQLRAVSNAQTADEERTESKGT

[18] = target: T6, Neuropeptide Y receptor type 1 (Homo sapiens, UniProt P25929); test: IC50 of human NPY-Y1 blockers – cell-based, dose response (AID 1277); type: functional
T6 sequence (P25929 whole entry): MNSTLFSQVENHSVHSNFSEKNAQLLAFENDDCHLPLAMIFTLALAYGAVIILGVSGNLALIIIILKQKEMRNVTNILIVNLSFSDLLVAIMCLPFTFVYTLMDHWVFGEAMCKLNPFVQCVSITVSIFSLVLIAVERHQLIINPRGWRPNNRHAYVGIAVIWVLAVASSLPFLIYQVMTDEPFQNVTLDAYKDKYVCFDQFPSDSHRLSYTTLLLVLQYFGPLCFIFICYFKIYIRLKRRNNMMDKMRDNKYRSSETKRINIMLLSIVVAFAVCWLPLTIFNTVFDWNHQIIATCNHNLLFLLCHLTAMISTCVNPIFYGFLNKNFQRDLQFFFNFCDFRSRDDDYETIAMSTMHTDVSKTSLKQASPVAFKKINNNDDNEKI

INS1 = test: INS-1E survival protection against cytokine death – cell-based, luminescence, retest, dose response (AID 449756); type: functional; conditions: Rattus norvegicus, INS1;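 further: cell death triggered by IL-1 beta plus TNF-alpha plus IFN-gamma mixture; protective hits raise ATP signal compared with cytokine alone wells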

Chain of Cytochrome P450 2C9 (P11712 whole entry): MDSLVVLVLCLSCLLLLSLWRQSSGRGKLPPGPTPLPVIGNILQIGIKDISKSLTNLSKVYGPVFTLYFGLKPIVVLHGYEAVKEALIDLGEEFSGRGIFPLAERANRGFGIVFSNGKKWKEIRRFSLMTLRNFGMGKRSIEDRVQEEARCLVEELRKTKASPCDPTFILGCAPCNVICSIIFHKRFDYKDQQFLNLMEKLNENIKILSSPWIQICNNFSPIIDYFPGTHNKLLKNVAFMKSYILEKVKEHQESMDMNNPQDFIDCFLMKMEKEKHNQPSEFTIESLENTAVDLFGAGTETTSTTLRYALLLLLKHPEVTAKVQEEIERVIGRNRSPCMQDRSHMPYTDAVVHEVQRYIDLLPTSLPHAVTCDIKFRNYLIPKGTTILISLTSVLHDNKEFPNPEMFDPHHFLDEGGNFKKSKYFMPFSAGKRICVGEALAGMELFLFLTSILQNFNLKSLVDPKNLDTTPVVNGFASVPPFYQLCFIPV

With `CC(C)C[C@@H](CC(=O)N[C@@H](CCC(=O)O)CC(=O)O)NC(=O)[C@@H]1CCCC[C@H]1NC(=O)C[C@H](CCCN)NC(=O)C[C@H](CO)NC(=O)[C@@H]1CNCC[C@H]1N` the AC50 (Cytochrome P450 2C9) was 31.6 µM (inconclusive).

In the case of `Clc1ccc(COC(Cn2ccnc2)c2ccc(Cl)cc2Cl)c(Cl)c1` (configuration not stated) [MICONAZOLE NITRATE], the EC50 [1] is reported as 70.6 µM (not active), the EC50 [2] is reported as 8.19 µM (active) and the EC50 [3] is reported as 7.45 µM (active). For the same compound, the AC50 [4] was 6.36 µM (active), the IC50 [5] was 11 µM (inactive) and the IC50 [6] was 28.1 µM (inactive). The IC50 [7] was 13.2 µM (inactive).

For `NC(=O)c1cn(C2OC(CO)C(O)C2O)c2ncnc(N)c12` (configuration not stated), the EC50 (BJ [8]) was 0.874 µM (active), the EC50 [9] was > 55.7 µM (not active) and the EC50 (BJ [10]) was 1.27 µM (inconclusive). The EC50 [11] was > 55.7 µM (not active), the EC50 (BJ [12]) was 1.19 µM (inconclusive) and the EC50 [13] was 1.09 µM (active). The AC50 [14] was 14.6 µM (active), the IC50 (Galanin receptor type 3) was 1.31 µM (active) and the EC50 (cells) was > 29.9 µM (inactive).

In the case of `Cc1ccc(C(=O)C[n+]2cc(-c3ccccc3)n3c2CCCCC3)cc1`, the IC50 [15] is reported as 31.2 µM (not active), the IC50 [16] is reported as 8.01 µM (active) and the IC50 [17] is reported as > 14.6 µM (not active). For the same compound, the IC50 [18] was 6.06 µM (active) and the AC50 (INS1) was 4.71 µM (active).
